Measurements as given in patent US11707472B2, “Compositions for the treatment of fibrosis” (Viking Therapeutics, Inc., priority 2017, dated 2023).

Assays:
Type in all cases: in vivo
[1] = system: DIO-NASH mice; experiment: DIO-NASH mice, 8 weeks oral treatment, liver fibrosis readouts (Example 1); conditions: oral once per day; for liver Picro-Sirius Red (PSR) staining (total liver collagen 1 and 3 by morphometry): Compound 1 10 mg/kg; for proportion of animals with a reduction in fibrosis score post-treatment: vs mock treated animals
Experimental: DIO-NASH mice were acclimatized for 3 weeks, with pre-treatment liver biopsy samples collected prior to acclimatization. Mice were randomly assigned to one of five dosing groups, with 12 mice per group. Assigned dosages were: Compound 2 (low): 3 mg/kg; Compound 2 (high): 10 mg/kg; Compound 1: 10 mg/kg; and Elafibranor (30 mg·kg). One group was mock treated with vehicle only as a control. Dosage forms were administered orally once per day. After 8 weeks, animals were sacrificed and liver samples were taken. Liver samples were assayed for total liver hydroxyproline, and subjected to immunohistochemical observation for fibrosis stage as well as the extent of Cola1 (Collagen Type Ia) staining. […] Since hydroxyproline is a significant component of collagen, and collagen is the most significant source of hydroxyproline in animal tissues, levels of hydroxyproline provide a reliable proxy for the presence of collagen in a sample.
Terminal liver biopsy samples were also subjected to histochemical staining and immunohistochemical staining. Representative images of liver stained with Picro-Sirius Red (to visualize collagen I and III deposition, red stain) at the end of the treatment period following 8 weeks of treatment with vehicle, low dose Compound 2, high dose Compound 2, Compound 1, or elafibranor are shown in FIG. 2. […] Representative images of liver stained with anti-type I collagen (col1a1) (Southern Biotech, Cat. 131001) at the end of the treatment period following 8 weeks of treatment with vehicle, low dose Compound 2, high dose Compound 2, Compound 1, or elafibranor are shown in FIG. 3. The extent of ColA1 content was calculated as the total liver ColA1 staining in terminal liver biopsy samples.
Fibrosis scores were also calculated based on observation of terminal liver biopsy samples.

[2] = system: male Dunkin-Hartley guinea pigs; experiment: bleomycin-induced pulmonary fibrosis (Example 2); conditions: guinea pig lung biopsies, 6-10 weeks treatment; relative to levels prior to administration
Experimental: Pulmonary fibrosis is induced in healthy male Dunkin-Hartley guinea pigs by administering bleomycin intratracheally. Control subjects are developed by intratracheal administration of saline solution. After the establishment of pulmonary fibrosis in the bleomycin treated animals, test articles comprising any one of Compounds 1-4, or any other compound disclosed herein, are administered to each subject as appropriate for its formulation, daily or as appropriate, for 6-10 weeks. Unilateral lung biopsies are taken prior to the first administration of the test articles and again after sacrifice following the last administration of the test articles. Biopsy samples are analyzed as described in Example I, with the addition of immunohistochemical staining for type III collagen. […] Mock treated animals show little or no reduction in fibrosis, hydroxyproline content, or Collagen III content.

[3] = system: diet-induced NASH mouse model; experiment: diet-induced NASH mouse model, 8-week dosing (Example 6); design: reduction in fibrosis (fibrosis score) / reduction in type 1 collagen deposition / reduction in hydroxyproline / reduction of expression of pro-fibrotic gene Colla1 / reduction of expression of pro-fibrotic gene Col3a1 / reduction of expression of pro-fibrotic gene αSMA / reduction of expression of pro-fibrotic gene Galectin 1: concentration or dose not given beside the values; conditions: diet-induced NASH mice, oral dosing 8 weeks
Experimental: Compound 2 was evaluated in a diet-induced NASH mouse model (See, e.g., Hansen, H. et al., Drug Discovery Today 22(17):1701-1718 (2017) which is hereby incorporated by reference with respect to its disclosure of diet-induced, genetic, chemical, and other NASH mouse models). […] Animals were biopsied pre-study, and only animals with NASH and fibrosis were selected for study. Selected animals were acclimatized and randomized, with experimental groups of 11-12 animals per cohort receiving oral dosing of compound 2 according to the following schedules: Daily dosing for 8 weeks; or daily dosing for week 0-1 followed by weekly dosing for weeks 2-8. At week 8, animals were sacrificed and tissues analyzed. Plasma enzymes (P-ALT (alanine aminotransferase) and P-AST (aspartate aminotransferase)), total plasma triglycerides, and total plasma cholesterol were measured, and terminal necropsy of each liver was carried out, assaying total liver biochemistry including total liver triglycerides, and total liver cholesterol, as well as histological evaluation of NAFLD activity score (done pre- and post-treatment), fibrosis stage (also done pre- and post-treatment), steatosis, Colla1 level, and galactin-3 level. Tissue samples were preserved for characterization using RNAseq; RNAseq was used to determine expression levels for genes showing differential expression in compound 2-treated vs. vehicle treated animals and/or genes known to be implicated in fibrosis.

[4] = system: Phosphorylase kinase deficient mice (PhKc−/−); experiment: GSD-8/9-like hepatic symptoms in PhKc-/- mice (Example 5); conditions: PhKc−/− mice liver biopsies, 6-10 weeks treatment; relative to levels prior to administration
Experimental: (§1) Phosphorylase kinase deficient mice that manifest GSD-8/9-like hepatic symptoms, including hypercholesterolemia and hyperlipidemia (PhKc−/−, see, e.g., Varsanyi, M. et al., Biochem. Genet. 18(3-4):247-61 (1980)), are treated with test articles comprising any one of Compounds 1-4, or any other compound disclosed herein, administered to each subject as appropriate for its formulation, daily or as appropriate, for 6-10 weeks. Liver biopsies are taken prior to the first administration of the test articles and again after sacrifice following the last administration of the test articles. […] Mock treated animals show little or no reduction in fibrosis, hydroxyproline content, or Collagen I content.

[5] = system: nude mice; experiment: palmar fascia fibrosis induced by Dupuytren's disease fibroblasts (second Example 2); conditions: nude mice forepaw biopsies, 6-10 weeks treatment; relative to levels prior to administration
Text: Palmar fascia fibrosis is induced in nude mice by introducing fibroblasts from fibrotic cords of Dupuytren's disease patients as described in Stish, L. et al., BMC Musculoskelet. Disord. 16: 138-148 (2015) which is hereby incorporated by reference with respect to its description of the establishment of an animal model system for the study of palmar fascia fibrosis. After the establishment of palmar fascia fibrosis in the fibroblast treated animals, test articles comprising any one of Compounds 1-4, or any other compound disclosed herein, are administered to each subject as appropriate for its formulation, daily or as appropriate, for 6-10 weeks. Unilateral forepaw biopsies are taken prior to the first administration of the test articles and again after sacrifice following the last administration of the test articles. Biopsy samples are analyzed as described in Example 1, with the addition of immunohistochemical staining for type I collagen. […] Mock treated animals show little or no reduction in fibrosis, hydroxyproline content, or Collagen III content.

[6] = system: Sprague-Dawley Rats or C57BL mice; experiment: hypertrophic skin lesions induced by capsaicin, CCl4 and/or bleomycin (Example 3); conditions: rat or mouse skin biopsies, 6-10 weeks treatment; relative to levels prior to administration
Text: Hypertrophic skin lesions are induced in Sprague-Dawley Rats by subcutaneous injection of capsaicin as described in Wallengren, J. et al., Skin Pharm. Appl. Skin Physiol. 15(3):154-165 (2002), which is hereby incorporated by reference with respect to its description of the induction of hypertrophic skin lesions in rats; or in C57BL or other appropriate strain mice by subcutaneous administration of CCl4 and/or bleomycin, as described in Alonso-Merino et al., Proc. Nat. Acad. Sci. 113(24):E3451-60 (2016), which is incorporated herein for its disclosure of the induction of fibrotic skin lesions in mice. After the establishment of hypertrophic skin lesions in the capsaicin, CCl4 and/or bleomycin treated animals, test articles comprising any one of Compounds 1-4, or any other compound disclosed herein, are administered to each subject animal as appropriate for its formulation, daily or as appropriate, for 6-10 weeks. Skin biopsies from the injection site are taken prior to the first administration of the test articles and again after sacrifice following the last administration of the test articles. Biopsy samples are analyzed as described in Example I, with the addition of immunohistochemical staining for type III collagen. […] Mock treated animals show little or no reduction in fibrosis, hydroxyproline content, or Collagen III content.

[7] = system: Glucose-6-phosphatase-α deficient mice (Agl−/−); experiment: GSD-3-like hepatic symptoms in Agl-/- mice (Example 4); conditions: Agl−/− mice liver biopsies, 6-10 weeks treatment; relative to levels prior to administration
Experimental: as §1, with “Glucose-6-phosphatase-α” for “Phosphorylase kinase”, “GSD-3-like” for “GSD-8/9-like”, “(Agl−/−, see e.g. Liu, K.” for “(PhKc−/−, see, e.g., Varsanyi,”, “Mol.” for “Biochem.”, “Metabol. 111(4):467-76 (2014))” for “18(3-4):247-61 (1980)),”

[8] = Compound 2 3 and 10 mg/kg, vs elafibranor (control) and vehicle (mock)
[9] = liver RNAseq, FIG. 8, vs vehicle-treated controls
[10] = liver, FIG. 7, relative to pre-treatment samples

Cc1cc(OCP(=O)(OCOC(=O)C(C)(C)C)OCOC(=O)C(C)(C)C)cc(C)c1Cc1ccc(O)c(Cc2ccccc2)c1 [Compound 1] was tested, and the “liver Picro-Sirius Red (PSR) staining (total liver collagen 1 and 3 by morphometry)” value [1, 8] was “lower PSR staining than those from mock-treated animals” and the “proportion of animals with a reduction in fibrosis score post-treatment” value [1] was “higher proportion”.

Cc1cc(OCP2(=O)OCC[C@@H](c3cccc(Cl)c3)O2)cc(C)c1Cc1ccc(O)c(C(C)C)c1 (stereo partly shown) [Compound 2] was tested, and the “lung Collagen III staining” value [2] was “decreased”, the lung fibrosis score [2] was “decreased” and the lung hydroxyproline levels [2] was “reduced levels”. For the same compound, the “NAS scores (NAFLD activity score)” value [3] was “significant improvements”, the toxicity [3] was “No significant toxicity” and the “reduction of total lipid content in the liver” value ([3]; FIG. 6, vs vehicle-treated controls) was “approximately 80%”. For the same compound, the “reduction of expression of pro-fibrotic gene Col3a1” value [3, 9] was 27.1%, the “reduction of expression of pro-fibrotic gene Colla1” value [3, 9] was 36.3% and the “reduction of expression of pro-fibrotic gene Galectin 1” value [3, 9] was 64.7%. For the same compound, the “reduction of expression of pro-fibrotic gene αSMA” value [3, 9] was 37%, the “reduction in fibrosis (fibrosis score)” value [3, 10] was 50.2% and the reduction in hydroxyproline [3, 10] was 46.3%. For the same compound, the “reduction in type 1 collagen deposition” value [3, 10] was 60.2%, the liver cholesterol ([3]; relative to untreated controls) was “Significant reductions” and the liver triglycerides ([3]; relative to untreated controls) was “Significant reductions”. The “liver Collagen I staining” value [4] was “decreased”, the liver fibrosis score [4] was “decreased” and the liver hydroxyproline levels [4] was “reduced levels”. The “animals with increases in fibrosis score post-treatment” value [1] was “No Compound 2-treated animals showed increases”, the “liver Picro-Sirius Red (PSR) staining (total liver collagen 1 and 3 by morphometry)” value [1, 8] was “lower PSR staining than control-treated or mock-treated animals” and the total liver hydroxyproline ([1]; Compound 2 3 mg/kg (low) and 10 mg/kg (high), vs elafibranor 30 mg/kg (control) and vehicle (mock)) was “lower total liver hydroxyproline levels than control-treated or mock-treated animals”. For the same compound, the “total liver ColA1 content (anti-type I collagen staining)” value ([1]; Compound 2 3 and 10 mg/kg, terminal liver biopsy, vs elafibranor (control) and vehicle (mock)) was “lower total liver ColA1 content than control-treated or mock-treated animals”, the “proportion of animals with a reduction in fibrosis score post-treatment” value [1] was “higher proportion” and the “palmar fascia Collagen III staining” value [5] was “decreased”. The “palmar fascia fibrosis score” value [5] was “decreased”, the “palmar fascia hydroxyproline levels” value [5] was “reduced levels” and the “injection site skin Collagen III staining” value [6] was “decreased”. For the same compound, the “injection site skin fibrosis score” value [6] was “decreased”, the “injection site skin hydroxyproline levels” value [6] was “reduced levels” and the “liver Collagen I staining” value [7] was “decreased”. The liver fibrosis score [7] was “decreased” and the liver hydroxyproline levels [7] was “reduced levels”.
